Reference: BindingDB's records for doi:10.1016/j.ejmech.2018.06.052 (Cnrs/University of Strasbourg, 2018)

Test: Induction of PHB2-mediated melanogenesis in mouse Melan-a cells assessed as pigmentation after 72 hrs

- EC50: 2500 nM
Compound: NCCOCCOCCNc1nc(NCc2cccc(F)c2)nc(Oc2c(F)c(F)c(F)c(F)c2F)n1
